Test in all cases: NCI anticancer screen, dose series, 48 h
The subject of test [1] is A549 NSCLC.
The test system of test [2] is HCT-116 colon.
The test system of test [3] is HS 578T breast.
Test [4] deals with K-562 leukemia.
Test [5] concerns M14 melanoma.
Test [6] deals with NCI-H226 lung.
The subject of test [7] is NCI-H522 lung.
Test [8] relates to OVCAR-4 ovarian.
Test [9] deals with SNB-75 CNS.
The subject of test [10] is U251 CNS.

Each structure is given as a SMILES string.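 Cells were grown in 96-well plates and exposed to each compound for 48 hours at five concentrations; endpoints were interpolated linearly between bracketing concentrations, or set to the highest concentration if not reached. TGI denotes the concentration required for complete inhibition of growth.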 Where a SMILES comes first, the peptide text is derived from it. The star is where a group is joined. Cbz = O=C(OCc1ccccc1)*; NHNH2 = NN* Bounds are passed on as bounds.

In the case of `COC(=O)/C=C\C(C#N)(C#N)N=Cc1sccc1C`, the TGI in [1] was 29.6 µM; in test [2] it was 6.69 µM; in test [3], 37.1 µM; in [4], > 100 µM; in test [5], 5.48 µM; in test [6], 13.2 µM. For the same compound, the TGI in [7] is 1.67 µM; in [8] it was 10.3 µM; in test [9], 28.4 µM; in test [10], > 40.6 µM.
`COc1c2c(cc3c1C1(O)Cc4ccc5c(c4C[N+]1(C)CC3)OCO5)OCO2` (stereo not drawn): the TGI in test [1], in [2], in test [3], in [4], in test [5] and in test [6] was > 100 µM in each case. For the same compound, the TGI in test [7], in test [8], in test [9] and in test [10] was > 100 µM in each case.
`NC(=O)c1c(NC=O)ncn1C1OCC(O)C(O)C1O` (stereo not drawn): the TGI in test [1], in [2], in [3], in [4], in test [6] and in [7] was > 100 µM in each case. The TGI in [8], in [9] and in test [10] was > 100 µM in each case.
For the compound `CC1(C)CC(=O)c2c(nc3c(ccc4ccccc43)c2-c2ccc(NC(=O)CCCCC(=O)Nc3ccc(-c4c5c(nc6c4ccc4ccccc46)CC(C)(C)CC5=O)cc3)cc2)C1`, the TGI was > 100 µM in [1]; 74.6 µM in [2]; > 100 µM in test [3]; > 100 µM in test [4]; > 100 µM in test [5]; 54.9 µM in [6]. The TGI in test [7] was > 100 µM; in [9], 53.1 µM; in test [10] it was > 100 µM.
In the case of `Cc1ccc(NC(=O)/C(=N/N(C)C)C(C2OC(=O)c3ccccc32)[N+](=O)[O-])cc1` (stereo not drawn), the TGI in [1], in [2], in test [3], in [4], in test [5] and in test [6] was > 100 µM in each case. Moreover, the TGI in test [8], in [9] and in test [10] was > 100 µM throughout.
In the case of `O=C1CSC2=NC3=C(CSC/C3=C\c3ccccc3)C(c3ccccc3)N12` (stereo not drawn), the TGI in test [1], in test [2], in test [3], in test [4], in test [5] and in test [6] was > 100 µM each time. Moreover, the TGI in test [8], in test [9] and in test [10] was > 100 µM in each case.
As for `CO[C@@H]1C[C@H](OC(N)=O)[C@@H]2C=C[C@@H]3/C=C(C)/C=C/[C@@H](C)[C@H](/C(C)=C/[C@@H](C)NC(C)=O)OC(=O)/C=C/C=C(C)\C=C\[C@]3(C)[C@@H]2C1`, the TGI in [1] was found to be 0.223 µM; in [2] it was 0.107 µM; in test [3], 0.0455 µM; in test [4], 8.38 µM; in test [5], 0.912 µM; in [7], 0.103 µM. Besides, the TGI in test [8] stood at 11.4 µM; in test [9], 0.0826 µM; in test [10], 0.375 µM.
For `c1ccc2c(c1)ccn1ccc3c4ccccc4nc-3c21`, the TGI was found to be 1.57 µM in test [1]; 4.25 µM in [3]; 0.567 µM in test [4]; 1.51 µM in [5]; 1.81 µM in test [6]; 1.7 µM in test [7]. The TGI in [8] stood at 1.75 µM; in test [9] it was 2.15 µM; in [10], 1.47 µM.
On to `CC1(C)OC[C@@H](O)[C@H](Br)CO1`, for which the TGI in test [2], in test [3], in [4], in test [5], in test [6] and in [8] was > 100 µM throughout. Further, the TGI in test [9] and in [10] was > 100 µM each time.
`CCOC(=O)CCC(NC(=O)OCc1ccccc1)C(=O)NC(CCC(=O)OCC)C(=O)NN` (stereo not drawn) (Cbz-Glu(OEt)-Glu(OEt)-NHNH2; configuration not given here): the TGI in test [1], in test [2], in [3], in test [4], in test [5] and in test [6] was > 100 µM in each case. Besides, the TGI in test [9] and in test [10] was > 100 µM in each case.
For the compound `C(=Nc1ccc(-c2nc3ccccc3[nH]2)cc1)c1ccco1`, the TGI in test [1], in test [2], in test [3], in test [4], in test [5] and in test [6] was > 100 µM each time. The TGI in test [7], in [8] and in test [9] was > 100 µM throughout.
As to `CCOC(=O)C(C)c1nc2ccc(C(F)(F)F)cc2[nH]c1=O` (stereo not drawn), the TGI in test [1], in test [2], in [3], in [4], in test [5] and in test [6] was > 100 µM each time. The TGI in test [8], in test [9] and in test [10] was > 100 µM throughout.
Regarding `CCN(CC)c1ccc2cc(C(=O)Nc3ccc(C)cc3)c(=N)oc2c1`, the TGI in [1], in test [2], in test [3], in [4], in test [5] and in test [6] was > 100 µM each time. The TGI in test [8], in test [9] and in test [10] was > 100 µM in each case.
Take `NC1Cc2ccccc2OC1=O` (stereo not drawn): the TGI in test [1], in test [3], in test [4], in test [5], in test [6] and in test [7] was > 100 µM throughout. Also, the TGI in [9] and in test [10] was > 100 µM throughout.
With `Cc1ccc2[nH]c3[nH]c(=S)[nH]c(=O)c3c2c1`, the TGI in test [1], in test [2], in test [3], in test [4], in test [5] and in test [6] was > 100 µM each time. The TGI in test [7] and in [9] was > 100 µM each time.

For the origin of these results see PubChem BioAssay (NCI).
